Laboratory results published in US4128638A, “Nona- and deca-peptide amide derivatives demonstrating high ovulation inducing activity” (ICI Australia Limited, priority 1975, dated 1978).
Where a SMILES comes first, the peptide text is derived from it. [ ]: non-standard residue; d: D form. pGlu = O=C1CC[C@@H](C(=O)O)N1

Columns and labels:
[1] = tested on: LH release from the pituitary gland of ovariectomized ewes; test: Bioassay for LH release in ovariectomized ewes (plasma LH by radioimmunoassay); type: in vivo; conditions: intravenous injection
Protocol: Each ewe was bled twice by jugular venipuncture before administration of the analogue, to establish basal levels of LH in plasma. Following intravenous injection of the appropriate analogue dissolved in saline solution (1 ml), blood samples were collected at intervals over the next three hours, centrifuged and subjected to radioimmunoassay for LH.

[2] = tested on: androgen-sterilized, constant-oestrous rats; test: Ovulation induction in androgen-sterilized, constant-oestrous rats; type: in vivo; conditions: intravenous dose/rat 0.25 μg
Source text: This activity is exemplified in the table below:

SMILES | Ovulating rats/group [2] | other results
CC(C)C[C@H](NC(=O)CCNC(=O)[C@H](Cc1ccc(O)cc1)NC(=O)[C@H](CO)NC(=O)[C@H](Cc1c[nH]c2ccccc12)NC(=O)[C@H](Cc1c[nH]cn1)NC(=O)[C@@H]1CCC(=O)N1)C(=O)N[C@@H](CCCNC(=N)N)C(=O)N1CCC[C@H]1C(=O)NCC(N)=O [Example 1, L-Pyroglutamyl-L-histidyl-L-tryptophanyl-L-seryl-L-tyrosyl-β-alanyl-L- leucyl-L-arginyl-L-prolyl-glycinamide] |  | P* (maximal release of LH by the LHRH analogue at a given dose expressed as a percentage of the LH release by LHRH at the same dose) ([1]; dose 2.5 μg): 97%; P* (maximal release of LH by the LHRH analogue at a given dose expressed as a percentage of the LH release by LHRH at the same dose) ([1]; dose 25 μg): 108%
CC(C)C[C@H](NC(=O)CNC(=O)[C@H](Cc1ccc(O)cc1)NC(=O)[C@H](CO)NC(=O)[C@H](Cc1c[nH]c2ccccc12)NC(=O)[C@H](Cc1c[nH]cn1)NC(=O)[C@@H]1CCC(=O)N1)C(=O)N[C@@H](CCCNC(=N)N)C(=O)N1CCC[C@H]1C(=O)NCCC(N)=O [Example 2, L-Pyroglutamyl-L-histidyl-L-tryptophanyl-L-seryl-L-tyrosylglycyl-L-leucyl-L-arginyl-L-prolyl-β-alaninamide] |  | P* (maximal release of LH by the LHRH analogue at a given dose expressed as a percentage of the LH release by LHRH at the same dose) ([1]; dose 5 μg): 12%; P* (maximal release of LH by the LHRH analogue at a given dose expressed as a percentage of the LH release by LHRH at the same dose) ([1]; dose 50 μg): 75%
CCCNC(=O)[C@@H]1CCCN1C(=O)[C@H](CCCNC(=N)N)NC(=O)[C@H](CC(C)C)NC(=O)CCNC(=O)[C@H](Cc1ccc(O)cc1)NC(=O)[C@H](CO)NC(=O)[C@H](Cc1c[nH]c2ccccc12)NC(=O)[C@H](Cc1c[nH]cn1)NC(=O)[C@@H]1CCC(=O)N1 [β-Ala^6 -des-Gly^10 -LHRH n-propylamide, L-pyroglutamyl-L-histidyl-L-tryptophanyl-L-seryl-L-tyrosyl-β-alanyl-L- leucyl-L-arginyl-L-proline N-n-propylamide] | 5/6 | 
CC(C)C[C@H](NC(=O)CNC(=O)[C@H](Cc1ccc(O)cc1)NC(=O)[C@H](CO)NC(=O)[C@H](Cc1c[nH]c2ccccc12)NC(=O)[C@H](Cc1c[nH]cn1)NC(=O)[C@@H]1CCC(=O)N1)C(=O)N[C@@H](CCCNC(=N)N)C(=O)N1CCC[C@H]1C(=O)N(C)CC(N)=O [Example 3, L-Pyroglutamyl-L-histidyl-L-tryptophanyl-L-seryl-L-tyrosylglycyl-L-leucyl-L-arginyl-L-prolysarcosinamide] |  | P* (maximal release of LH by the LHRH analogue at a given dose expressed as a percentage of the LH release by LHRH at the same dose) ([1]; dose 5 μg): 70%; P* (maximal release of LH by the LHRH analogue at a given dose expressed as a percentage of the LH release by LHRH at the same dose) ([1]; dose 50 μg): 45%
CCNC(=O)[C@@H]1CCCN1C(=O)[C@H](CCCNC(=N)N)NC(=O)[C@H](CC(C)C)NC(=O)CCNC(=O)[C@H](Cc1ccc(O)cc1)NC(=O)[C@H](CO)NC(=O)[C@H](Cc1c[nH]c2ccccc12)NC(=O)[C@H](Cc1c[nH]cn1)NC(=O)[C@@H]1CCC(=O)N1 [β-Ala^6 des-Gly^10 -FHRH ethylamide, L-Pyroglutamyl-L-histidyl-L-tryptophanyl-L-seryl-L-tyrosyl-β-alanyl-L- leucyl-L-arginyl-L-proline N-ethylamide] | 3/3 | 
CNC(=O)[C@@H]1CCCN1C(=O)[C@H](CCCNC(=N)N)NC(=O)[C@H](CC(C)C)NC(=O)CCNC(=O)[C@H](Cc1ccc(O)cc1)NC(=O)[C@H](CO)NC(=O)[C@H](Cc1c[nH]c2ccccc12)NC(=O)[C@H](Cc1c[nH]cn1)NC(=O)[C@@H]1CCC(=O)N1 [β-Ala^6 -des-Gly^10 -LHRH methylamide, L-Pyroglutamyl-L-histidyl-L-tryptophanyl-L-seryl-L-tyrosyl-β-alanyl-L- leucyl-L-arginyl-L-proline N-methylamide] | 3/3 | 
CC[C@H](C)[C@H](NC(=O)[C@@H](C)NC(=O)[C@H](Cc1ccc(O)cc1)NC(=O)[C@H](CO)NC(=O)[C@H](Cc1c[nH]c2ccccc12)NC(=O)[C@H](Cc1c[nH]cn1)NC(=O)[C@@H]1CCC(=O)N1)C(=O)N[C@@H](CCCNC(=N)N)C(=O)N1CCC[C@H]1C(=O)NCC(N)=O [D-Ala^6 -Ile^7 -LHRH, L-Pyroglutamyl-L-histidyl-L-tryptophanyl-L-seryl-L-tyrosyl-D-alanyl-L-isoleucyl-L-arginyl-L-prolyl-glycinamide] ([pGlu]HWSY[dA]IRPG-NH2) | 3/3 | 
CC(C)C[C@H](NC(=O)CCNC(=O)[C@H](Cc1ccc(O)cc1)NC(=O)[C@H](CO)NC(=O)[C@H](Cc1c[nH]c2ccccc12)NC(=O)[C@H](Cc1c[nH]cn1)NC(=O)[C@@H]1CCC(=O)N1)C(=O)N[C@@H](CCCNC(=N)N)C(=O)N1CCC[C@H]1C(=O)N1CCCC1 [β-Ala^6 -des-Gly^10 -LHRH pyrrolidide, L-Pyroglutamyl-L-histidyl-L-tryptophanyl-L-seryl-L-tyrosyl-β-alanyl-L- leucyl-L-arginyl-L-proline pyrrolidide] | 3/3 | 
CC(C)[C@H](NC(=O)[C@@H](C)NC(=O)[C@H](Cc1ccc(O)cc1)NC(=O)[C@H](CO)NC(=O)[C@H](Cc1c[nH]c2ccccc12)NC(=O)[C@H](Cc1c[nH]cn1)NC(=O)[C@@H]1CCC(=O)N1)C(=O)N[C@@H](CCCNC(=N)N)C(=O)N1CCC[C@H]1C(=O)NCC(N)=O [D-Ala^6 -Val^7 -LHRH, L-pyroglutamyl-L-histidyl-L-tryptophanyl-L-seryl-L-tyrosyl-D-alanyl-L-valyl-L-arginyl-L-prolylglycinamide] ([pGlu]HWSY[dA]VRPG-NH2) | 3/3 | 
